The test deals with IL-2 production. The test can be described thus: Inhibition of IL-2 production in PHA-activated Jurkat cells (ELISA). In kind it is cell-based. The settings on record: Homo sapiens, PHA 2.5 μg/mL, 20 hours, IL-2 ELISA. The procedure: Jurkat cells were placed in a 96 well plate (0.5 million cells per well in 1% FBS medium) then a test compound of this invention was added at different concentrations. After 10 minutes, the cells were activated with PHA (final concentration 2.5 μg/mL) and incubated for 20 hours at 37° C. under CO2. The final volume was 200 μL. Following incubation, the cells were centrifuged and the supernatants were collected and stored at −70° C. prior to assaying for IL-2 production. A commercial ELISA kit (IL-2 Eli-pair, Diaclone Research, Besancon, France) was used to detect production of IL-2, from which dose response curves were obtained. The IC50 value was calculated as the concentration at which 50% of maximum IL-2 production after stimulation was inhibited versus a non-stimulation control.
Background: ELISA stands for enzyme-linked immunosorbent assay.

A value given as a limit tells only on which side of the number the result lay.

The values below come from patent US8119643B2, “Benzoimidazolyl-pyrazine compounds for inflammation and immune-related uses” (Synta Pharmaceuticals Corp., priority 2006, dated 2012).

As usually defined, the IC50 is the midpoint of a concentration-inhibition curve. A high value points to a need for much substance.

Take `COc1ccc2c(c1)nc(C(F)(F)F)n2-c1cnc(NC(=O)c2ccc(C)cc2)cn1` [Compound 118, N-[5-(5-Methoxy-2-trifluoromethyl-benzoimidazol-1-yl)-pyrazin-2-yl]-4-methyl-benzamide]: the midpoint of inhibition, the IC50, lay at 40 nM.
For `COc1ccc2c(c1)nc(C(F)(F)F)n2-c1cnc(NC(=O)c2ccc(C)c([N+](=O)[O-])c2)cn1` [Compound 140, N-[5-(5-Methoxy-2-trifluoromethyl-benzoimidazol-1-yl)-pyrazin-2-yl]-4-methyl-3-nitro-benzamide] the value was 192 nM.
The same measure for `COc1ccc2c(c1)nc(C(F)(F)F)n2-c1cnc(NC(=O)c2cc(Cl)ccc2OC)cn1` [Compound 152, 5-Chloro-2-methoxy-N-[5-(5-methoxy-2-trifluoromethyl-benzoimidazol-1-yl)-pyrazin-2-yl]-benzamide]: greater than 1000 nM.
The same measure for `CCc1ccc(C(=O)Nc2cnc(-n3c(C(F)(F)F)nc4cc(OC)ccc43)cn2)cc1` [Compound 106, 4-Ethyl-N-[5-(5-methoxy-2-trifluoromethyl-benzoimidazol-1-yl)-pyrazin-2-yl]-benzamide]: 2 nM; for `COC(=O)c1ccc2c(c1)nc(C(F)(F)F)n2-c1cnc(NC(=O)c2c(F)cccc2F)cn1` [Compound 25, 1-[5-(2,6-Difluoro-benzoylamino)-pyrazin-2-yl]-2-trifluoromethyl-1H-benzoimidazole-5-carboxylic acid methyl ester]: 29 nM; for `COc1ccc2c(c1)nc(C(F)(F)F)n2-c1cnc(NC(=O)c2cc(C)ccc2C)cn1` [Compound 122, N-[5-(5-Methoxy-2-trifluoromethyl-benzoimidazol-1-yl)-pyrazin-2-yl]-2,5-dimethyl-benzamide]: 73 nM.
`COc1ccc2c(c1)nc(C(F)(F)F)n2-c1cnc(NC(=O)c2cccc(C#N)c2)cn1` [Compound 101, 3-Cyano-N-[5-(5-methoxy-2-trifluoromethyl-benzoimidazol-1-yl)-pyrazin-2-yl]-benzamide] registered a half-inhibitory concentration (IC50) of 96 nM.
For `COc1ccc2c(c1)nc(C(F)(F)F)n2-c1cnc(NC(=O)c2cccc(SC)c2)cn1` [Compound 95, N-[5-(5-Methoxy-2-trifluoromethyl-benzoimidazol-1-yl)-pyrazin-2-yl]-3-methylsulfanyl-benzamide], the IC50 turned out to be 489 nM.
`COc1ccc(CNc2cnc(-n3c(C(F)(F)F)nc4cc(OC)ccc43)cn2)cc1` [Compound 90, (4-Methoxy-benzyl)-[5-(5-methoxy-2-trifluoromethyl-benzoimidazol-1-yl)-pyrazin-2-yl]-amine]: the IC50 is greater than 1000 nM.
For `O=C(Nc1cnc(-n2c(C(F)(F)F)nc3cc(-c4ncco4)ccc32)cn1)c1c(F)cccc1F` [Compound 153, 2,6-Difluoro-N-[5-(5-oxazol-2-yl-2-trifluoromethyl-benzoimidazol-1-yl)-pyrazin-2-yl]-benzamide] the value was 15 nM; for `COc1ccc2c(c1)nc(C(F)(F)F)n2-c1cnc(NCc2c(F)cccc2Cl)cn1` [Compound 100, (2-Chloro-6-fluoro-benzyl)-[5-(5-methoxy-2-trifluoromethyl-benzoimidazol-1-yl)-pyrazin-2-yl]-amine], 132 nM.
The same measure for `COc1ccc2c(c1)nc(C(F)(F)F)n2-c1cnc(NC(=O)c2cc(C)cc(C)c2)cn1` [Compound 121, N-[5-(5-Methoxy-2-trifluoromethyl-benzoimidazol-1-yl)-pyrazin-2-yl]-3,5-dimethyl-benzamide]: greater than 1000 nM; for `COc1ccc2c(c1)nc(C(F)(F)F)n2-c1cnc(NC(=O)c2ccc(Cl)cc2F)cn1` [Compound 9, 4-Chloro-2-fluoro-N-[5-(5-methoxy-2-trifluoromethyl-benzoimidazol-1-yl)-pyrazin-2-yl]-benzamide]: 55 nM.
For `COc1ccc(C(=O)Nc2cnc(-n3c(C(F)(F)F)nc4cc(OC)ccc43)cn2)cc1` [Compound 120, 4-Methoxy-N-[5-(5-methoxy-2-trifluoromethyl-benzoimidazol-1-yl)-pyrazin-2-yl]-benzamide] the value was 295 nM.
`COc1cccc(CNc2cnc(-n3c(C(F)(F)F)nc4cc(OC)ccc43)cn2)c1` [Compound 103, (3-Methoxy-benzyl)-[5-(5-methoxy-2-trifluoromethyl-benzoimidazol-1-yl)-pyrazin-2-yl]-amine]: the IC50 is greater than 1000 nM.
The same measure for `COc1ccc2c(c1)nc(C(F)(F)F)n2-c1cnc(NC(=O)c2cccc(C(F)(F)F)c2)cn1` [Compound 125, N-[5-(5-Methoxy-2-trifluoromethyl-benzoimidazol-1-yl)-pyrazin-2-yl]-3-trifluoromethyl-benzamide]: 780 nM; for `COc1ccc2c(c1)nc(C(F)(F)F)n2-c1cnc(NC(=O)c2cccc(Cl)c2Cl)cn1` [Compound 113, 2,3-Dichloro-N-[5-(5-methoxy-2-trifluoromethyl-benzoimidazol-1-yl)-pyrazin-2-yl]-benzamide]: 22 nM.
Molecule `COc1ccc2c(c1)nc(C(F)(F)F)n2-c1cnc(NC(=O)c2ccc([N+](=O)[O-])cc2)cn1` [Compound 97, N-[5-(5-Methoxy-2-trifluoromethyl-benzoimidazol-1-yl)-pyrazin-2-yl]-4-nitro-benzamide] gave a half-maximal inhibitory concentration (IC50) of 307 nM.
The same measure for `COc1ccc2c(c1)nc(C(F)(F)F)n2-c1cnc(NC(=O)c2ccc(Cl)c([N+](=O)[O-])c2)cn1` [Compound 139, 4-Chloro-N-[5-(5-methoxy-2-trifluoromethyl-benzoimidazol-1-yl)-pyrazin-2-yl]-3-nitro-benzamide]: greater than 1000 nM.
